Results taken from patent US7361643B2, “Methods for inhibiting angiogenesis” (University of Puerto Rico, priority 2000, dated 2008).

System: bovine adrenal medullary microvascular endothelial cells
Assay: Cell cycle and apoptosis by flow cytometry (propidium iodide)
Assay type: cell-based
Experimental: Regarding flow cytometry, assessment of the cell cycle was determined by propidium iodide staining of fixed cell nuclei followed by flow cytometry in a FacSort (Beckton Dickinson) according to the method of Krishan (1975) as modified by Vindelov (1977), as discussed in KRISHAN, “Rapid Flow Cytofluorometric Analysis of Mammalian Cell Cycle by Propidium Iodide Staining”, J. Cell Biol., 66:188-193 (1975); and VINDELOV, “Flow Cytometric Analysis of Nuclear DNA in Cells from Solid Tumors and Cell Suspensions”, Virchows Arch (B), 24:227-231(1977), the disclosures of which are herein incorporated by reference in their entireties. Briefly, cells were trypsinized, and pelleted by centrifugation at 900 rpm in a bench top centrifuge (Sorvall T6000B). After washing twice with PBS the cell pellet was resuspended in propidium iodide-buffer (PI-buffer; 10 mM Tris-HCl, pH 8.0 containing 10 mM NaCl, 0.7 μM PI, 700 units/liter RNase, and 0.1% (v/v) NP-40), kept in ice for 30 minutes and then fixed with 2% (v/v) paraformaldehyde. After FacSort calibration, 3000 events were counted per sample. Acquisition and analysis of data were carried out by using Cell Quest flow cytometry software (Macintosh-based). Gates: M1=G0/G1, M2=S, M3=G2+M, M4=apoptosis.
Proliferation and Differentiation of Capillary Endothelial Cells: 2.0×10^4 cells were seeded per well in 24-well clusters in 1 ml complete EMEM containing 10% (v/v) serum and allowed to grow for 72 hours. Media were removed and the cells were washed twice with phosphate-buffer saline, pH 7.4 (PBS). Cells were synchronized by incubating for 48 hours in 2 mM hydroxyurea in serum-free EMEM with glutamine (2 mM) and one-third of penicillin-streptomycin used in a regular culture condition, followed by incubating 24 hours in serum-free EMEM, as discussed in CAO et al., “Modified Method of Mammalian Cell Synchronization Improves Yield and Degree of Synchronization”, Exp. Cell Res., 193:405-410 (1991), the disclosure of which is herein incorporated by reference in its entirety. Cells were routinely monitored by light microscopy. For proliferation assay, cells were trypsinized and counted in a hemacytometer. Viability of cells was determined by trypan blue (0.4% (v/v)) exclusion. Statistical analysis was carried out by StatView II software (Macintosh). Quantitation of cellular differentiation was carried out by observing under a Nikon AlphaShot inverted microscope, and counting the number of capillary lumen-like structures in five randomly selected fields per sample. The results were expressed as percent of its corresponding control after normalization of cell numbers. Analysis of Cell Cycle by Flow Cytometry: Assessment of the cell cycle was determined by propidium iodide staining of fixed cell nuclei followed by flow cytometry in a FacSort (Beckton Dickinson) according to the method of Krishan (1975) as modified by Vindelov (1977), as discussed in KRISHAN, “Rapid Flow Cytometric Analysis of Mammalian Cell Cycle by Propidium Iodide Staining”, J. Cell Biol. 66:188-195 (1975); and VINDELOV, “Flow Cytometric Analysis of Nuclear DNA in Cells from Solid Tumors and Cell Suspensions”, Virchows Arch (B), 24:227-231 (1977), the disclosures of which are herein incorporated by reference in their entireties. Briefly, cells were trypsinized, and pelleted by centrifugation at 900 rpm in a bench top centrifuge (Sorvall T6000B). After washing twice with PBS the cell pellet was resuspended in propidium iodide-buffer (PI-buffer; 10 mM Tris-HCl, pH 8.0 containing 10 mM NaCl, 0.7 μM PI, 700 units/liter RNase, and 0.1% (v/v) NP-40), kept in ice for 30 minutes and then fixed with 2% (v/v) paraformaldehyde. After FacSort calibration, 3000 events were counted per sample. Acquisition and analysis of data were carried out by using Cell Quest flow cytometry software (Macintosh-based). Gates: M1 G0/G1, M2=S, M3=G2+M, M4=apoptosis.

tunicamycin
completion of the cell cycle (1 μg/ml tunicamycin): never completed the cell cycle
cell population entered into apoptosis (1 μg/ml tunicamycin, 32 hours exposure, synchronized cells, EMEM 2% (v/v) FBS): ~70%
apoptosis by flow cytometric analysis (in words) (in the presence of tunicamycin): underwent apoptosis
